Broadly, the EC50 is the concentration that produces a half-maximal response.

The target in this assay is T1, human farnesoid X receptor (Homo sapiens, UniProt Q96RI1).
T1 construct: CMX-farnesoid X receptor (full length human farnesoid X receptor); expressed in transfected cells; host or cells: CV-1 African Green Monkey Kidney cells
T1 sequence (Q96RI1 1-472 isoform Q96RI1-2): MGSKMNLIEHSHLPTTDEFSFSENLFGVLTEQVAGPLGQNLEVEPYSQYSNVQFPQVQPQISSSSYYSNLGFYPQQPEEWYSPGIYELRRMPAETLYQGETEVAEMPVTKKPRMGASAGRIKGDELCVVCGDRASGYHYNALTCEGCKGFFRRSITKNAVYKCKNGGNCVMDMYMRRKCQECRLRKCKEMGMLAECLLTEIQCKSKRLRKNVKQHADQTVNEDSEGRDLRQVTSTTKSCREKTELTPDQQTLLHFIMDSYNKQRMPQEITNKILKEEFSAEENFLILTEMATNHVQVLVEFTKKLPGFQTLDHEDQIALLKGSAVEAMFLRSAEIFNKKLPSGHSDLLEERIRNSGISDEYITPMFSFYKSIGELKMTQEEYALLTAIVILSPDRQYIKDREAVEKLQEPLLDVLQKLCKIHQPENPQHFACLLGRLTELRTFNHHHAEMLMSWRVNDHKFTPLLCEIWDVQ
T1 sequence (P19793 1-462 partner): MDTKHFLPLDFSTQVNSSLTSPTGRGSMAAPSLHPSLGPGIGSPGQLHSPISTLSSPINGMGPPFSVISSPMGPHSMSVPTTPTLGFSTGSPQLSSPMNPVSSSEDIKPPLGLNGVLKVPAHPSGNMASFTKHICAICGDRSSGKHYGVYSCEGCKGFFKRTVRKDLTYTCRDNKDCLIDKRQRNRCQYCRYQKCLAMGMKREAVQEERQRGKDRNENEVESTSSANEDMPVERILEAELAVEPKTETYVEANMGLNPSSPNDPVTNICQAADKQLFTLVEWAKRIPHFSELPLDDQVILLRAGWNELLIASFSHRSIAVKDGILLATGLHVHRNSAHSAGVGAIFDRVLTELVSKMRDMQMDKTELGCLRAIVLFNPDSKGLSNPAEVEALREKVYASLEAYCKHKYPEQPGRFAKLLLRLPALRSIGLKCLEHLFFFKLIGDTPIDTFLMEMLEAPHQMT
The assay can be described thus: FXR in vitro assays (farnesoid X receptor/ECREx7 co-transfection assay, TR-FRET assay), Table I. Format: cell-based. The note with it: for EC50: agonist activity, one or more of the in vitro assays, read-out: EC50; for Emax: read-out: % Efficacy. The gist of the method: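 CV-1 monkey kidney cells transfected for an FXR/ECREx7 luciferase co-transfection reporter; luciferase read 18-20 h later in lysates. 8-point dose-response at ½-log spacing, 4 wells per point; EC50/IC50 from four-parameter Hill fit, averaged over at least 3 independent experiments.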

For `CC(C)OC(=O)C1=CN(C(=O)C2CCCCC2)CC(C)(C)c2c1[nH]c1ccccc21` [Example 1, 1-Methylethyl 1,1-Dimethyl-1,2,3,6-Tetrahydroazepino [4,5-b]Indole-5-CarboxylateE], the EC50 was 10 to 100 nM and the Emax was > 100%.
For the compound `CC(C)OC(=O)C1=CN(C(=O)c2ccc(F)c(F)c2)CC(C)(C)c2c1[nH]c1cc(OCCN(C)C)ccc21` [Example 98, 1-methylethyl 3-[(3,4-difluorophenyl)carbonyl]-8-{[2-(dimethylamino)ethyl]oxy}-1,1-dimethyl-1,2,3,6-tetrahydroazepino[4,5-b]indole-5-carboxylate], the EC50 lay in the range of 100 to 1000 nM and the Emax is < 40%.
The matching figures for `CC(C)OC(=O)C1=CN(C(=O)c2c(F)cc(F)cc2F)CC(C)(C)c2c1[nH]c1ccccc21` [Example 78, 1-methylethyl 1,1-dimethyl-3-[(2,4,6-trifluorophenyl)carbonyl]-1,2,3,6-tetrahydroazepino[4,5-b]indole-5-carboxylate]: 10 to 100 nM and > 100%.
With `CC(C)OC(=O)C1=CN(C(=O)c2cccc(CN3CCCCCCC3)c2)CC(C)(C)c2c1[nH]c1ccccc21` [Example 176, 1-methylethyl 3-{[3-(azocan-1-ylmethyl)phenyl]carbonyl}-1,1-dimethyl-1,2,3,6-tetrahydroazepino[4,5-b]indole-5-carboxylate], the EC50 was 100 to 1000 nM and the Emax is > 100%.
For `CC(C)OC(=O)C1=CN(C(=O)c2cccc(CN(C)C)c2)CC(C)(C)c2c1[nH]c1ccccc21` [Example 108, 1-methylethyl 3-({3-[(dimethylamino)methyl]phenyl}-carbonyl)-1,1-dimethyl-1,2,3,6-tetrahydroazepino[4,5-b]indole-5-carboxylate], in that order: 100 to 1000 nM and > 100%.
The matching figures for `CC(C)OC(=O)C1=CN(C(=O)c2ccc3c(c2)OC(F)(F)O3)CC(C)(C)c2c1[nH]c1ccccc21` [Example 92, 1-methylethyl 3-[(2,2-difluoro-1,3-benzodioxol-5-yl)carbonyl]-1,1-dimethyl-1,2,3,6-tetrahydroazepino[4,5-b]indole-5-carboxylate]: 100 to 1000 nM and > 100%.
The matching figures for `CC(C)OC(=O)C1=CN(C(=O)c2ccc(Cl)cc2Cl)CC(C)(C)c2c1[nH]c1ccccc21` [Example 143, 1-methylethyl 3-[(2,4-dichlorophenyl)carbonyl]-1,1-dimethyl-1,2,3,6-tetrahydroazepino[4,5-b]indole-5-carboxylate]: 10 to 100 nM and > 100%.
Regarding `CC(C)OC(=O)C1=CN(C(=O)c2c(F)cccc2F)CC(C)(C)c2c1[nH]c1ccccc21` [Example 75, 1-methylethyl 3-[(2,6-difluorophenyl)carbonyl]-1,1-dimethyl-1,2,3,6-tetrahydroazepino[4,5-b]indole-5-carboxylate], the EC50 is 1 to 10 nM and the Emax is > 100%.
For `CC(C)OC(=O)C1=CN(C(=O)c2cccc(CN3CCN(S(C)(=O)=O)CC3)c2)CC(C)(C)c2c1[nH]c1ccccc21` [Example 151, 1-methylethyl 1,1-dimethyl-3-[(3-{[4-(methylsulfonyl)piperazin-1-yl]methyl}phenyl)carbonyl]-1,2,3,6-tetrahydroazepino[4,5-b]indole-5-carboxylate], in that order: 100 to 1000 nM and > 100%.
As for `CC(C)OC(=O)C1=CN(C(=O)c2ccc(C3CCNCC3)cc2)CC(C)(C)c2c1[nH]c1ccccc21` [Example 94, 1-methylethyl 1,1-dimethyl-3-[(4-piperidin-4-ylphenyl)carbonyl]-1,2,3,6-tetrahydroazepino[4,5-b]indole-5-carboxylate], the EC50 is > 10000 nM.
For the compound `CC(C)OC(=O)C1=CN(C(=O)c2cc(F)c(Cl)cc2F)CC(C)(C)c2c1[nH]c1ccccc21` [Example 149, 1-methylethyl 3-[(4-chloro-2,5-difluorophenyl)carbonyl]-1,1-dimethyl-1,2,3,6-tetrahydroazepino[4,5- ]indole-5-carboxylate], the EC50 was in the range of 10 to 100 nM and the Emax is > 100%.
Regarding `CC(=O)C1=CNCC(C)(C)c2c1[nH]c1ccccc21` [Example 21], the EC50 lay in the range of 1000 to 10000 nM.
As to `CC(C)OC(=O)C1=CN(C(=O)c2ccc(F)c(Br)c2)CC(C)(C)c2c1[nH]c1ccccc21` [Example 154, 1-methylethyl 3-[(3-bromo-4-fluorophenyl)carbonyl]-1,1-dimethyl-1,2,3,6-tetrahydroazepino[4,5-b]indole-5-carboxylate], the EC50 fell in the range of 10 to 100 nM and the Emax is > 100%.
The matching figures for `CC(C)OC(=O)C1=CN(C(=O)c2ccccc2F)CC(C)(C)c2c1[nH]c1ccccc21` [Example 63, 1-methylethyl 3-[(2-fluorophenyl)carbonyl]-1,1-dimethyl-1,2,3,6-tetrahydroazepino[4,5-b]indole-5-carboxylate]: 10 to 100 nM and > 100%.
`CC(C)OC(=O)C1=CN(C(=O)c2ccccc2Cl)CC(C)(C)c2c1[nH]c1ccccc21` [Example 66, 1-methylethyl 3-[(2-chlorophenyl)carbonyl]-1,1-dimethyl-1,2,3,6-tetrahydroazepino[4,5-b]indole-5-carboxylate]: the EC50 fell in the range of 1 to 10 nM and the Emax was > 100%.
For `CCN(CC)C(=O)N1C=C(C(=O)OC(C)C)c2[nH]c3ccccc3c2C(C)(C)C1` [Example 52, 1-methylethyl 3-[(diethylamino)carbonyl]-1,1-dimethyl-1,2,3,6-tetrahydroazepino[4,5-b]indole-5-carboxylate], in that order: 10 to 100 nM and > 100%.
For `CC(C)OC(=O)C1=CN(C(=O)c2ccc(C(F)(F)F)c(F)c2)CC(C)(C)c2c1[nH]c1ccccc21` [Example 84, 1-methylethyl 3-{[3-fluoro-4-(trifluoromethyl)phenyl]car-bonyl}-1,1-dimethyl-1,2,3,6-tetrahydroazepino[4,5-b]indole-5-carboxylate], in that order: 10 to 100 nM and > 100%.
For the compound `CC(=O)C1=CN(C(=O)c2ccc(F)c(F)c2)CC(C)(C)c2c1[nH]c1ccccc21` [Example 106, 1-{3-[(3,4-difluorophenyl)carbonyl]-1,1-dimethyl-1,2,3,6-tetrahydroazepino[4,5-b]indol-5-yl}ethanone], the EC50 is 100 to 1000 nM and the Emax is > 100%.
The matching figures for `CC(C)OC(=O)C1=CN(C(=O)NC2CCCC2)CC(C)(C)c2c1[nH]c1ccccc21` [Example 44, 1-methylethyl 3-[(cyclopentylamino)carbonyl]-1,1-dimethyl-1,2,3,6-tetrahydroazepino[4,5-b]indole-5-carboxylate]: 10 to 100 nM and > 100%.
`CC(C)OC(=O)C1=CN(C(=O)c2cccc(C3CCNCC3)c2)CC(C)(C)c2c1[nH]c1ccccc21` [Example 95, 1-methylethyl 1,1-dimethyl-3-[(3-piperidin-4-ylphenyl)carbonyl]-1,2,3,6-tetrahydroazepino[4,5-b]indole-5-carboxylate]: the EC50 was > 10000 nM.
As to `CC(C)OC(=O)C1=CN(C(=O)c2cccc(CN3CCNCC3)c2)CC(C)(C)c2c1[nH]c1ccccc21` [Example 178, 1-methylethyl 1,1-dimethyl-3-{[3-(piperazin-1-ylmethyl)phenyl]carbonyl}-1,2,3,6-tetrahydroazepino[4,5-b]indole-5-carboxylate], the EC50 was > 10000 nM.

Source of the values: patent US20090203577A1 (EXELIXIS, INC., priority 2005, published 2009).
